“And” between values parts separate entries of the source, which are not always exact repeats. Equal values may be shown once. The source made the active and inactive calls. The rule behind the calls is not given here.
Tested on: not listed separately
Assay: fungal lysis via adenylate kinase leakage – AK release, plate reader, dry powder, set 2, dose response (AID 743303)
Conditions: C. neoformans cell lysis, adenylate kinase release; at 15 µM (top of the series)

Question: For `O=S(=O)(c1ccc(OCCn2cnc3ccccc32)cc1)N1CCOCC1`, which cell lysis activity is on record?
Answer: Its cell lysis activity is -15% (inactive).

Question: For `COc1ccccc1OCCn1c(=S)[nH]c2ccccc21`, which cell lysis activity is on record?
Answer: The cell lysis activity was -4.68% (inactive).

Question: With `CC(C)Oc1ccc(OCCn2c(=S)[nH]c3ccccc32)cc1` as the molecule, how does the cell lysis activity read?
Answer: Its cell lysis activity is 26.4% (inactive).

Question: For `Cc1ccc(C(C)C)c(OCCn2c(NC#N)nc3ccccc32)c1`, which cell lysis activity is on record?
Answer: Its cell lysis activity is -24% (inactive).

Question: Which cell lysis activity does the source give for `CS(=O)(=O)c1ccc(OCCn2cnc3ccccc32)cc1` here?
Answer: Its cell lysis activity is -28.4% (inactive).

Question: Which cell lysis activity does the source give for `COc1cccc(OCCn2cnc3ccccc32)c1` here?
Answer: The cell lysis activity was -2.74% (inactive).

Question: For `c1ccc2c(c1)ncn2CCOc1ccc2c(c1)CCC2`, which cell lysis activity is on record?
Answer: Its cell lysis activity is 33.8% (inactive).

Question: For `Cc1ccc2c(c1)[nH]c(=S)n2CCOc1ccccc1`, which cell lysis activity is on record?
Answer: Its cell lysis activity is 10.9% (inactive).

Question: With `Cc1ccc(C(C)C)c(OCCn2c(=O)[nH]c3ccccc32)c1` as the molecule, how does the cell lysis activity read?
Answer: The cell lysis activity was -24.5% (inactive).

Question: Which cell lysis activity does the source give for `COc1cc(C)ccc1OCCn1cnc2ccccc21` here?
Answer: The cell lysis activity was -57.7% (inactive).

Question: With `CSc1nc2ccccc2n1CCOc1cc(C)ccc1C(C)C` as the molecule, how does the cell lysis activity read?
Answer: Its cell lysis activity is -20.1% (inactive).

Question: For `Fc1ccc(OCCn2c(=S)[nH]c3ccccc32)cc1`, which cell lysis activity is on record?
Answer: Its cell lysis activity is -65.4% (inactive).

Question: For `c1ccc(-c2ccc(OCCn3cnc4ccccc43)cc2)cc1`, which cell lysis activity is on record?
Answer: Its cell lysis activity is 6.2% (inactive).

Question: With `CSc1nc2ccccc2n1CCOc1ccc(C)cc1` as the molecule, how does the cell lysis activity read?
Answer: The cell lysis activity was 16.4% (inactive).

Question: With `Clc1ccc(OCCn2cnc3ccccc32)c(Cl)c1` as the molecule, how does the cell lysis activity read?
Answer: Its cell lysis activity is -34% (inactive).

Tested on: C. neoformans cell lysis, adenylate kinase release
Assay: as above
Conditions: not given

Question: With `Cc1cccc(OCCn2c(=S)[nH]c3ccc(C(F)(F)F)cc32)c1` as the molecule, how does the AC40 read?
Answer: The AC40 was > 15 µM (inactive).

Question: Which AC40 does the source give for `CC(C)c1ccccc1OCCn1c(=S)[nH]c2ccccc21` here?
Answer: Its AC40 is 1.25 µM.

Question: For `Cc1ccc(C(C)C)c(OCCn2c(=S)[nH]c3ccccc32)c1`, which AC40 is on record?
Answer: The AC40 was 9.17 µM.

Question: With `COc1ccc(OCCn2cnc3ccccc32)cc1` as the molecule, how does the AC40 read?
Answer: The AC40 was > 15 µM (inactive).

Question: Which AC40 does the source give for `CC(C)(C)c1ccc(OCCn2c(CO)nc3ccccc32)cc1` here?
Answer: Its AC40 is 14.2 µM.

Question: Which AC40 does the source give for `FC(F)(F)c1cccc(OCCn2cnc3ccccc32)c1` here?
Answer: Its AC40 is > 15 µM (inactive).

Question: With `Cc1cc2ncn(CCOc3ccc4c(c3)CCC4)c2cc1C` as the molecule, how does the AC40 read?
Answer: Its AC40 is 4.6 µM.

Question: For `OCc1nc2ccccc2n1CCOc1ccccc1`, which AC40 is on record?
Answer: Its AC40 is > 15 µM (inactive).

Question: With `CCCCc1nc2ccccc2n1CCOc1ccccc1` as the molecule, how does the AC40 read?
Answer: The AC40 was 6.27 µM.

Question: For `CCCc1nc2ccccc2n1CCOc1ccccc1`, which AC40 is on record?
Answer: Its AC40 is 7.46 µM.

Question: Which AC40 does the source give for `CSc1nc2ccccc2n1CCOc1ccccc1` here?
Answer: The AC40 was > 15 µM (inactive).

Question: For `Cc1ccc(OCCn2cnc3ccccc32)c(C)c1`, which AC40 is on record?
Answer: Its AC40 is > 15 µM (inactive).

Question: With `Cc1ccc(C(C)C)c(OCCn2c(N)nc3ccccc32)c1` as the molecule, how does the AC40 read?
Answer: The AC40 was > 15 µM (inactive).

Question: With `S=c1[nH]c2cccc(Cl)c2n1CCOc1ccccc1` as the molecule, how does the AC40 read?
Answer: The AC40 was 2.83 µM.

Question: Which AC40 does the source give for `CC(C)c1ccccc1NCCn1c(=S)[nH]c2ccccc21` here?
Answer: The AC40 was 3.78 µM.

Question: Which AC40 does the source give for `Cc1ccc(OCCn2cnc3cc(C)c(C)cc32)cc1` here?
Answer: Its AC40 is 1.94 µM.

Question: For `Cc1cc2ncn(CCOc3ccccc3)c2cc1C`, which AC40 is on record?
Answer: Its AC40 is 10.1 µM.

Question: For `CC(C)Oc1cccc(OCCn2cnc3ccccc32)c1`, which AC40 is on record?
Answer: Its AC40 is > 15 µM (inactive).

Question: Which AC40 does the source give for `Cc1ccc(OCCn2cnc3ccccc32)c(C(C)C)c1` here?
Answer: The AC40 was 4.09 µM.

Question: For `NCC(=O)Nc1ccc(-n2nc(C(F)(F)F)cc2-c2ccc3c(ccc4ccccc43)c2)cc1`, which AC40 is on record?
Answer: Its AC40 is 5 µM.

Question: With `COCc1nc2ccccc2n1CCOc1ccc(C(C)(C)C)cc1` as the molecule, how does the AC40 read?
Answer: Its AC40 is > 15 µM (inactive).

Question: For `Cc1cccc(OCCn2c(=S)[nH]c3ccccc32)c1`, which AC40 is on record?
Answer: The AC40 was 1.38 µM.

Question: Which AC40 does the source give for `Cc1cccc(OCCn2cnc3ccccc32)c1` here?
Answer: The AC40 was 12.8 µM.

Question: For `c1ccc(COc2ccc(OCCn3cnc4ccccc43)cc2)cc1`, which AC40 is on record?
Answer: The AC40 was > 15 µM (inactive).

Question: With `COc1ccccc1OCCn1c(SC)nc2ccccc21` as the molecule, how does the AC40 read?
Answer: Its AC40 is > 15 µM (inactive).

Question: Which AC40 does the source give for `Clc1ccccc1OCCn1cnc2ccccc21` here?
Answer: Its AC40 is > 15 µM (inactive).

Question: Which AC40 does the source give for `Fc1ccc2c(c1)[nH]c(=S)n2CCOc1ccccc1` here?
Answer: The AC40 was 2.83 µM and 6.57 µM.

Question: For `Cc1cccc(OCCn2c(=S)[nH]c3cc(F)ccc32)c1`, which AC40 is on record?
Answer: The AC40 was 2.42 µM and 3.03 µM.

Question: Which AC40 does the source give for `Cc1cc2ncn(CCOc3ccccc3C)c2cc1C` here?
Answer: Its AC40 is 2.42 µM.

Question: For `Cc1cccc(OCCn2c(=S)[nH]c3c(F)cccc32)c1`, which AC40 is on record?
Answer: The AC40 was 3.23 µM and 1.51 µM.

Question: With `Cc1ccc(C(C)C)c(OCCn2c(CO)nc3ccccc32)c1` as the molecule, how does the AC40 read?
Answer: Its AC40 is > 15 µM (inactive).

Question: For `CCSc1nc2ccccc2n1CCOc1ccccc1`, which AC40 is on record?
Answer: Its AC40 is > 15 µM (inactive).

Question: With `CC(C)Oc1ccc(OCCn2cnc3ccccc32)cc1` as the molecule, how does the AC40 read?
Answer: The AC40 was > 15 µM (inactive).

Question: Which AC40 does the source give for `S=c1[nH]c2cc(Cl)ccc2n1CCOc1ccccc1` here?
Answer: The AC40 was 2.57 µM.

Question: For `Clc1ccc(OCCn2cnc3ccccc32)cc1`, which AC40 is on record?
Answer: The AC40 was > 15 µM (inactive).

Question: With `CCc1nc2ccccc2n1CCOc1ccccc1` as the molecule, how does the AC40 read?
Answer: Its AC40 is > 15 µM (inactive).

Question: Which AC40 does the source give for `CC(C)(C)c1ccc(OCCn2cnc3ccccc32)cc1` here?
Answer: Its AC40 is 1.46 µM.

Question: Which AC40 does the source give for `CC(C)(C)c1ccc(OCCn2cnc3ccccc32)c(Cl)c1` here?
Answer: The AC40 was > 15 µM (inactive).

Question: Which AC40 does the source give for `Fc1cccc2c1[nH]c(=S)n2CCOc1ccccc1` here?
Answer: Its AC40 is 13.8 µM.

Question: Which AC40 does the source give for `Cc1ccccc1OCCn1cnc2ccccc21` here?
Answer: The AC40 was 15 µM.
